# Data published in patent US5340587A, “Liposome/bronchodilator method & System” (priority 1989, dated 1994).
# Where a name gives a salt, the structure may show the parent alone.
# Key:
# [1] = in vivo
# Procedure: This liposome-protective effect is illustrated in FIGS. 1A and 1B, which graph percent increases in heart rate, above a pre-drug level, in animals receiving a β2 -agonist in free (open squares), or liposomal form. The two liposomal formulations are characterized by relatively short drug-release half life (open circles, FIG. 1A), or a relatively long drug-release half life (closed circles, FIG. 1B). Heart rate was measured at 15, 45, 75, and 105 minutes after drug administration, and immediately before the animal received a bronchoconstricting dose of histamine by inhalation. […] With liposome-encapsulated drug, however, the increase in heart rate was substantially lower and more constant over the test period.
# [2] = blood plasma MPS levels after inhalation (FIG. 2); assay type: in vivo; details: inhaled or intranasal
# [3] = tested on: acetylcholine-induced bronchoconstriction; test: protection against acetylcholine-induced bronchoconstriction (FIG. 4); assay type: in vivo, mongrel dogs; details: inhalation, high dose MPS, about four hours (FIG. 4)
# [4] = tested on: histamine-induced bronchoconstriction; test: determination of therapeutic dose of free drug against histamine-induced bronchoconstriction; assay type: in vivo, guinea pigs; details: free form, inhalation
# Procedure: The therapeutic doses of terbutaline sulfate, and salbutamol sulfate which were used in the present study were determined as follows. […] These drug doses, adjusted for the body weight of the test animal, were administered by inhalation in free form, and their effects on the histamine-induced bronchoconstriction were determined as above. MPS was also tested in the initial drug-dose study. […] The therapeutic doses per animal determined from the study were: 39 μg MPS (2× recommended dose); 15 μg terbutaline (2× recommended dose); and 1.5 μg salbutamol (1× recommended dose). The therapeutic dose of MPS is approximately 60 times less than the dose used in the experiments reported above, and in Example VI.
# bronchoconstriction = details: free vs liposomal-entrapped MPS; cited from earlier work
# [5] = in vivo; cited from earlier work
# [6] = Table 1; cited from earlier work
# [7] = tested on: histamine-induced bronchoconstriction; test: histamine-induced bronchoconstriction: airway resistance and lung compliance (FIGS. 5, 6); assay type: in vivo, guinea pigs; details: terbutaline, relative to baseline
# Procedure: The study described in Example VII illustrates the increased protection, at extended time periods, achievable with liposomal drug administration. Briefly summarizing the Example VII study, terbutaline sulfate or salbutamol sulfate, in either free or liposomal form, was administered by inhalation. At several times after drug administration, the test animal was challenged with aerosolized histamine, to induce bronchoconstriction. At the beginning of each test, prior to administration of the β2 -agonist, and immediately after each histamine dose, airway resistance and lung compliance in the animal were measured. Airway resistance, which is measured at points of equal lung volume during the breathing cycle, provides a measure of the resistance to gas flow through the large air passages of the lung. Lung compliance, which is measured at zero flow points in the breathing cycle, reflects the pressure changes required to effect the lung volume change over the breathing cycle. The resistance and compliance values determined at the beginning of the test serve as baseline values for determining the percentage changes in resistance and compliance, in response to histamine-induced bronchoconstriction.
# Each time point was calculated as the difference in airway resistance shortly after histamine administration and at the beginning of the test (baseline value) divided by the baseline value. […]
SMILES,protection against bronchoconstriction at the recommended dose [4],therapeutic dose per animal [4] [µg],Tc (transition temperature) [6] [C.°],also measured
"CC(C)NCC(O)c1cc(O)cc(O)c1 (stereo not drawn) [MPS, metaproteranol sulfate]",necessary to double the recommended dose in order to achieve effective protection,39,,"increase in heart rate [1]: relatively high initial heart rate increase, with a slow decline over the test period; Cmax ([2]; free drug within 15 minutes, read-out: blood plasma MPS level, high): ~80 ng/mL; concentration at 2 h ([2]; over a two-hour period, read-out: blood plasma MPS level at end of test period): ~20 ng/mL; percent protection from ACH-induced bronchoconstriction [3]: substantially the same degree of protection against ACH-induced bronchoconstriction; percent protection against bronchoconstriction (bronchoconstriction): about the same for both free drug and liposomal-entrapped drug; plasma level course [5]: rapid drop in plasma levels"
"CCCCCCCC/C=C\CCCCCCCC(=O)OCC(COP(=O)([O-])OCC[N+](C)(C)C)OC(=O)CCCCCCC/C=C\CCCCCCCC (stereo not drawn) [DOPC, dioleoyl phosphatidyl choline]",,,-22,
"CCCCCCCCCCCCCC(=O)OC[C@H](COP(=O)([O-])OCC[N+](C)(C)C)OC(=O)CCCCCCCCCCCCC [DMPC, dimyristoyl phosphatidyl choline]",,,23,
CC(C)(C)NCC(O)c1ccc(O)c(CO)c1 (stereo not drawn) [salbutamol sulfate],good protection against bronchoconstriction,1.5,,
"CCCCCCCCCCCCCCCC(=O)OC[C@H](COP(=O)([O-])OCC[N+](C)(C)C)OC(=O)CCCCCCCCCCCCCCC [DPPC, dipalmitoyl phosphatidyl choline]",,,41,
"CCCCCCCCCCCCCCCCCC(=O)OCC(COP(=O)([O-])OCC[N+](C)(C)C)OC(=O)CCCCCCCCCCCCCCCCC (stereo not drawn) [DSPC, distearoyl phosphatidyl choline]",,,55,
CC(C)(C)NCC(O)c1cc(O)cc(O)c1 (stereo not drawn) [terbutaline sulfate],necessary to double the recommended dose in order to achieve effective protection,15,,"increase in airway resistance, end of test period ([7]; 115 minutes (FIG. 5A)): over 160%; increase in airway resistance, initial ([7]; first histamine challenge (FIG. 5A)): 60%"
